Assay results as given in patent US6673938B1, “Substituted pyridine herbicides” (Syngenta Participations AG, priority 1998, dated 2004).

Experiments:
[1] = tested on: Monocotyledonous and dicotyledonous test plants; test: Post-emergence herbicidal action; type: in vivo; conditions: evaluated after approximately 18 days; for Post-emergence action, Ipomoea / Post-emergence action, Lolium / Post-emergence action, Setaria / Post-emergence action, Sinapis / Post-emergence action, Solanum / Post-emergence action, Stellaria: 2000 g/ha, sprayed in 4- to 6-leaf stage, nine-step scale
Method in brief: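 Greenhouse plants sprayed at the 4- to 6-leaf stage with test substance as wettable-powder suspension or emulsion-concentrate emulsion, 2 kg or 250 g a.i./ha in 500 l water/ha. Scored after about 18 days on a nine-step scale (1=complete damage, 9=no effect).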

[2] = tested on: Monocotyledonous and dicotyledonous test plants; test: Herbicidal action before emergence of the plants (pre-emergence action); type: in vivo; conditions: evaluated after 3 weeks, nine-step scale; for pre-emergence action, Cyperus / pre-emergence action, Ipomoea / pre-emergence action, Setaria / pre-emergence action, Sinapis / pre-emergence action, Solanum / pre-emergence action, Stellaria: 2000 g/ha
Description: Monocotyledonous and dicotyledonous test plants are sown in standard soil in plastic pots. Immediately after sowing, the test substances as aqueous suspensions (prepared with a 25% wettable powder (Example F3, b) in accordance with WO 97/34485) or as emulsions (prepared with a 25% emulsion concentrate (Example F1, c)) are sprayed on at a rate of 2 kg of a.i./ha or 250 g of a.i./ha (500 l of water/ha). The test plants are then grown in the greenhouse under optimal conditions. After a test period of 3 weeks, the experiment is evaluated with reference to a nine-step scale (1=complete damage, 9=no effect). Score figures of 1 to 4 (in particular 1 to 3) mean a good to very good herbicidal action.

| Structure (SMILES) | Post-emergence action, Ipomoea [1] | Post-emergence action, Lolium [1] | Post-emergence action, Setaria [1] | Post-emergence action, Sinapis [1] | Post-emergence action, Solanum [1] | Post-emergence action, Stellaria [1] | pre-emergence action, Cyperus [2] | pre-emergence action, Ipomoea [2] | pre-emergence action, Setaria [2] | pre-emergence action, Sinapis [2] | pre-emergence action, Solanum [2] | pre-emergence action, Stellaria [2] | further results |
| --- | --- | --- | --- | --- | --- | --- | --- | --- | --- | --- | --- | --- | --- |
| Cc1nc(C(F)(F)F)ccc1C(=O)C1=C(O)C(C)(C(C)C)CC(C)(C)C1=O (stereo not shown) [Compound A2-B93] | 1 | 2 | 2 | 1 | 2 | 2 | 2 | 4 | 2 | 2 | 1 | 2 | – |
| COCc1nc(C(F)(F)F)ccc1C(=O)C1=C(O)C(C)(C)OCC1=O [Compound A8-B552] | – | – | – | – | – | – | – | – | – | – | – | – | Post-emergence action: Abutilon (score, nine-step scale) ([1]; Abutilon, 250 g/ha, sprayed at 4- to 6-leaf stage): 2; Post-emergence action: Chenop. (score, nine-step scale) ([1]; Chenop., 250 g/ha, sprayed at 4- to 6-leaf stage): 2; Post-emergence action: Digitaria (score, nine-step scale) ([1]; Digitaria, 250 g/ha, sprayed at 4- to 6-leaf stage): 3; Post-emergence action: Echino. (score, nine-step scale) ([1]; Echino., 250 g/ha, sprayed at 4- to 6-leaf stage): 3; Post-emergence action: Ipopur. (score, nine-step scale) ([1]; Ipopur., 250 g/ha, sprayed at 4- to 6-leaf stage): 2; Post-emergence action: Panicum (score, nine-step scale) ([1]; Panicum, 250 g/ha, sprayed at 4- to 6-leaf stage): 2; Post-emergence action: Xanth. (score, nine-step scale) ([1]; Xanth., 250 g/ha, sprayed at 4- to 6-leaf stage): 2; Pre-emergence action, Abutilon ([2]; Abutilon, 250 g/ha): 1; Pre-emergence action, Amaranthus ([2]; Amaranthus, 250 g/ha): 4; Pre-emergence action, Chenop. ([2]; Chenop., 250 g/ha): 1; Pre-emergence action, Digitaria ([2]; Digitaria, 250 g/ha): 3; Pre-emergence action, Echino. ([2]; Echino., 250 g/ha): 4; Pre-emergence action, Panicum ([2]; Panicum, 250 g/ha): 2 |
| Cc1nc(C(F)(F)F)ccc1C(=O)C1=C(O)CC(C(C)C)CC1=O (stereo not shown) [Compound A2-B1061] | 2 | 2 | 2 | 1 | 2 | 2 | 3 | 3 | 2 | 2 | 1 | 2 | – |
| Cc1nc(C(F)(F)F)ccc1C(=O)C1=C(O)C(C)(S(C)(=O)=O)C2CC2C1=O (stereo not shown) [Compound A2-D115] | 1 | 2 | 1 | 1 | 1 | 1 | 3 | 3 | 2 | 2 | 2 | 3 | – |
| Cc1nc(C(F)(F)F)ccc1C(=O)C1=C(O)CCC2(CC2)C1=O [Compound A2-C1] | 3 | 2 | 2 | 1 | 2 | 2 | 2 | 3 | 1 | 2 | 1 | 2 | – |
| Cc1nc(C(F)(F)F)ccc1C(=O)C1=C(O)CC(C)(C)CC1=O [Compound A2-B1063] | 2 | 2 | 4 | 1 | 2 | 2 | 1 | 2 | 1 | 2 | 1 | 2 | – |
| COCc1nc(C(F)(F)F)ccc1C(=O)C1=C(O)C(C)(C(=O)OC)CCC1=O (stereo not shown) [Compound A8-B34] | 2 | 2 | 2 | 2 | 2 | 2 | 2 | 3 | 2 | 2 | 2 | 2 | – |
| CCC1(C)CCC(=O)C(C(=O)c2ccc(C(F)(F)F)nc2C)=C1O (stereo not shown) [Compound A2-B25] | 1 | 2 | 2 | 2 | 1 | 2 | 2 | 3 | 2 | 2 | 1 | 2 | – |
| Cc1c(C(=O)C2=C(O)C(C)(C)C(=O)C(C)(C)C2=O)ccc(C(F)(F)F)[n+]1[O-] [Compound A1210-B354] | 2 | 2 | 2 | 1 | 1 | 2 | 2 | 3 | 2 | 1 | 1 | 2 | – |
| CCC1CC(C)(C)C(=O)C(C(=O)c2ccc(C(F)(F)F)nc2C)=C1O (stereo not shown) [Compound A2-B1089] | 1 | 2 | 2 | 1 | 1 | 2 | 1 | 2 | 2 | 2 | 1 | 2 | – |
| Cc1nc(C(F)(F)Cl)ccc1C(=O)C1=C(O)CCCC1=O [Compound A94-B1] | 1 | 2 | 2 | 1 | 1 | 1 | 1 | 2 | 2 | 1 | 1 | 2 | – |
| Cc1nc(C(F)(F)F)ccc1C(=O)C1=C(O)CC(C)CC1=O (stereo not shown) [Compound A2-B133] | 1 | 2 | 2 | 1 | 2 | 2 | 1 | 2 | 2 | 2 | 1 | 2 | – |
| COCCc1nc(C(F)(F)F)ccc1C(=O)C1=C(O)CCCC1=O [Compound A9-B1] | 2 | 4 | 2 | 2 | 2 | 2 | 2 | 1 | 2 | 1 | 1 | 2 | – |
| Cc1nc(C(F)(F)F)ccc1C(=O)C1=C(O)C(C)(C)CC(C)(C)C1=O [Compound A2-B90] | 1 | 2 | 2 | 1 | 2 | 2 | 1 | 1 | 1 | 1 | 1 | 1 | – |
| COCc1nc(C(F)(F)F)ccc1C(=O)C1=C(O)C(C)CCC1=O (stereo not shown) [Compound A8-B2] | 2 | 2 | 2 | 2 | 2 | 3 | 1 | 3 | 2 | 2 | 1 | 2 | – |
